Data from patent publication US20160213632A1, “Memory Performance and Prevention and Treatment of Neurodegenerative Diseases” (Max Planck Florida Institute for Neuroscience, priority 2015, published 2016).
Entries after “also recorded” stand apart in the source; their conditions may differ.

How the values were obtained:
CA1 neurons = assay: Dendritic spine density in cultured (organotypic) hippocampal slices treated with Aβ; format: cell-based, mice
Procedure: Organotypic hippocampal slice cultures (300 μm thick) were prepared from mice at postnatal day 6 or 7. After 1 week in culture, slices were transfected using biolistic gene transfer. Aβ stock solution (200 μM) was prepared in 1% NH4OH as a vehicle and added directly to the culture medium at a final concentration of 1 μM. FTI-277 was dissolved in DMSO and added directly to the culture medium at a final concentration of 10 μM.

organotypic slices = organotypic slices (Szatmari et al, 2013); cited from earlier work
Ras = assay: Active Ras pull-down assay in hippocampus of AD model (APP) mice; format: in vivo; conditions: hippocampus of 6 months old APP mice; daily IP injections for 3 consecutive days
Procedure: (§1) As a model for AD, male hAPPJ20 transgenic mice were used (Mucke et al., 2000). Non-transgenic male littermates were used for controls.
The level of active Ras in hippocampal lysates from CentA1 KO mice and their wild type litter mates was measured with an active Ras pull-down and detection kit and following the instructions from manufacturer (Thermo Scientific). Western blotting was conducted with mouse anti-Ras antibody.

ERK1/2 = assay: Western blotting for active/phosphorylated ERK1/2 in AD model mice; format: in vivo; conditions: daily IP injections for 3 consecutive days
Procedure: as §1
Protein expression and/or phosphorylation was evaluated by standard western blotting protocol using the following antibodies: goat anti-centaurin-α1 (Abcam; 1:500); mouse anti-β-actin (Sigma, 1:2000); mouse 6E10 (Covance, 1:1000); rabbit anti-phosphoERK1/2 (Cell Signaling Technologies, 1:1000); mouse anti-ERK1/2 (Cell Signaling Technologies, 1:1000); mouse anti-Ras (Pierce, 1:1000); rabbit anti-Hsp10 (Cell Signaling Technologies, 1:1000); rabbit anti-Hsp60 (Cell Signaling Technologies, 1:1000); and HRP-labeled anti-mouse, anti-goat, or anti-rabbit IgG antibodies (BioRad; 1:2000).

| Compound | Aβ-induced spine loss (CA1 neurons; organotypic slices, FTI-277 10 μM, Aβ 1 μM) | Aβ-induced decreased mEPSC frequency (organotypic slices) | dendritic spine density in CA1 neurons exposed to Aβ (CA1 neurons; cultured hippocampal slices, vehicle or Aβ in presence or absence of FTI-276 (FIG. 6D)) | Ras activity (pull-down assay) (Ras) | active/phosphorylated ERK1/2 (downstream of Ras) (ERK1/2) |
| --- | --- | --- | --- | --- | --- |
| COC(=O)[C@H](CCSC)NC(=O)c1ccc(NC[C@@H](N)CS)cc1-c1ccccc1 [FTI-277] | prevented | prevented | – | – | – |
| CSCC[C@H](NC(=O)c1ccc(NC[C@@H](N)CS)cc1-c1ccccc1)C(=O)O [FTI-276] | – | – | restored | reduced; also recorded: prevented Ras hyperactivation | reduces the activity of signaling pathways downstream of Ras; also recorded: reduced phosphorylation/activation of ERK1/2 |
